Assay results from US8486962B2, “Antifungal agents” (F2G Ltd., priority 2005, dated 2013).
Converted amounts (≈) assume the structure as drawn. Read-outs that look alike come from different tables or passages of the source.

What was measured:
[1] = test system: Aspergillus fumigatus AF210; assay: MIC, YAG medium, Aspergillus fumigatus AF210; format: cell-based; settings: Aspergillus fumigatus, AF210; YAG medium; read-out: MIC A Fum. 210
Procedure, shortened: (§1)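 OD at 485 nm versus drug-free control defines MIC (mg/L): >80% inhibition for Candida albicans in RPMI/2% glucose/MOPS pH7.0 after 24-48 hrs at 35° C, >70% for Aspergillus strains in YAG medium after 24 hrs at 35° C. Spore inocula 1-2×10^4 cfu/ml; yeast 1-2×10^3 cfu/ml.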

Aspergillus flavus = assay: MIC, YAG medium, Aspergillus flavus; format: cell-based; settings: Aspergillus flavus, YAG medium
Procedure, shortened: as §1

A Terreus 49 = assay: MIC, YAG medium, A Terreus 49; format: cell-based, Aspergillus terreus; settings: Aspergillus terreus; YAG medium; read-out: MIC A Terreus 49
Procedure, shortened: as §1

Aspergillus niger = assay: MIC, YAG medium, Aspergillus niger; format: cell-based; settings: Aspergillus niger, YAG medium
Procedure, shortened: as §1

Aspergillus terreus = assay: MIC, YAG medium, Aspergillus terreus; format: cell-based; settings: Aspergillus terreus, YAG medium
Procedure, shortened: as §1

[2] = test system: Aspergillus fumigatus AF293; assay: MIC, YAG medium, Aspergillus fumigatus AF293; format: cell-based; settings: Aspergillus fumigatus, AF293; YAG medium; read-out: MIC A Fum. 293
Procedure, shortened: as §1

| SMILES | MIC [1] [µg/mL] | MIC (Aspergillus flavus; read-out: MIC A Flavus 01) [µg/mL] | MIC (A Terreus 49) [µg/mL] | MIC (Aspergillus niger; read-out: MIC A Niger 1) [µg/mL] | MIC (Aspergillus terreus; read-out: MIC A Terreus 4) [µg/mL] | MIC [2] [µg/mL] | MIC (Aspergillus flavus; read-out: MIC A Flavus) [µg/mL] | MIC (Aspergillus niger; read-out: MIC A Niger) [µg/mL] | MIC (Aspergillus terreus; read-out: MIC A Terreus) [µg/mL] |
| --- | --- | --- | --- | --- | --- | --- | --- | --- | --- |
| COC(=O)c1ccc(NC(=O)C(=O)c2c(-c3ccccc3)cc3ccccn23)cc1 [Example 140, 4-[2-Oxo-2-(2-phenyl-indolizin-3-yl)-acetylamino]-benzoic acid methyl ester] | 0.12 (≈ 0.301 µM) | 0.031 (≈ 0.0778 µM) | 0.015 (≈ 0.0376 µM) | 0.031 (≈ 0.0778 µM) | 0.031 (≈ 0.0778 µM) | 0.12 (≈ 0.301 µM) |  |  |  |
| O=C(Nc1ccc(Cl)cc1Cl)C(=O)c1c(-c2ccccc2)cc2ccccn12 [Example 305, N-(2,4-Dichloro-phenyl)-2-oxo-2-(2-phenyl-indolizin-3-yl)-acetamide] | 0.5 (≈ 1.22 µM) |  | 0.015 (≈ 0.0367 µM) |  |  | 0.5 (≈ 1.22 µM) | 0.062 (≈ 0.151 µM) | 0.015 (≈ 0.0367 µM) | 0.031 (≈ 0.0757 µM) |
| CCN(CC)c1ccc(NC(=O)C(=O)c2c(-c3ccccc3)cc3ccccn23)cc1C [Example 290, N-(4-Diethylamino-3-methyl-phenyl)-2-oxo-2-(2-phenyl-indolizin-3-yl)-acetamide] | 0.2 (≈ 0.47 µM) | 0.05 (≈ 0.117 µM) | 0.003 (≈ 0.00705 µM) | 0.05 (≈ 0.117 µM) | 0.03 (≈ 0.0705 µM) | 0.1 (≈ 0.235 µM) |  |  |  |
| COc1cccc(NC(=O)C(=O)c2c(-c3ccccc3)cc3ccccn23)c1 [Example 138, N-(3-Methoxy-phenyl)-2-oxo-2-(2-phenyl-indolizin-3-yl)-acetamide] | 0.12 (≈ 0.324 µM) | 0.015 (≈ 0.0405 µM) | 0.004 (≈ 0.0108 µM) | 0.12 (≈ 0.324 µM) | 0.031 (≈ 0.0837 µM) | 0.12 (≈ 0.324 µM) |  |  |  |
| COc1ccc(NC(=O)C(=O)c2c(-c3ccccc3)cc3ccccn23)cc1C(C)=O [Example 282, N-(3-Acetyl-4-methoxy-phenyl)-2-oxo-2-(2-phenyl-indolizin-3-yl)-acetamide] | 0.1 (≈ 0.242 µM) | 0.008 (≈ 0.0194 µM) | 0.004 (≈ 0.0097 µM) | 0.1 (≈ 0.242 µM) | 0.015 (≈ 0.0364 µM) | 0.1 (≈ 0.242 µM) |  |  |  |
| Cc1ccc(Cl)cc1NC(=O)C(=O)c1c(-c2ccccc2)cc2ccccn12 [Example 246, N-(5-Chloro-2-methyl-phenyl)-2-oxo-2-(2-phenyl-indolizin-3-yl)-acetamide] | 0.25 (≈ 0.643 µM) | 0.031 (≈ 0.0797 µM) | 0.004 (≈ 0.0103 µM) | 0.062 (≈ 0.159 µM) | 0.008 (≈ 0.0206 µM) | 0.12 (≈ 0.309 µM) |  |  |  |
| CN(Cc1ccccc1)C(=O)c1cccc(NC(=O)C(=O)c2c(-c3ccccc3)cc3ccccn23)c1 [Example 263, N-Benzyl-N-methyl-3-[2-oxo-2-(2-phenyl-indolizin-3-yl)-acetylamino]-benzamide] | 0.4 (≈ 0.82 µM) | 0.05 (≈ 0.103 µM) | 0.1 (≈ 0.205 µM) | 0.8 (≈ 1.64 µM) | 0.2 (≈ 0.41 µM) | 0.4 (≈ 0.82 µM) |  |  |  |
| O=C(Nc1ccc(N2CCSCC2)cc1)C(=O)c1c(-c2ccccc2)cc2ccccn12 [Example 258, 2-Oxo-2-(2-phenyl-indolizin-3-yl)-N-(4-thiomorpholin-4-yl-phenyl)-acetamide] | 0.015 (≈ 0.034 µM) | 0.015 (≈ 0.034 µM) | 0.008 (≈ 0.0181 µM) | 0.03 (≈ 0.0679 µM) | 0.008 (≈ 0.0181 µM) | 0.03 (≈ 0.0679 µM) |  |  |  |
